Assay results reported in patent US12716903B2, “Microfluidic chip-based, universal coagulation assay” (Perosphere Technologies Inc., priority 2014, dated 2026).

System: blood
Assay: Blood clotting time on microfluidic closed device chip, by IR light transmission and impedance
Set-up: species or system patient
Conditions: PER977 added to blood sample containing edoxaban, both at 300 ng/mL; IR and impedance curves; room temperature
Method: For detection of clotting through measurement of impedances, a sample is loaded into the chip, the chip is inserted into its reader, and the pogo pins connecting to the internal impedance electrodes connected via Kelvin clip leads to a QuadTech 1920 LCR meter. The magnitude and the phase of the complex impedance of the blood sample were recorded at 15 second intervals. […] The peaks or plateaus indicated a measure for the clotting time.
For optical clot detection, IR LED and photodiode are inserted into their reader parts as described above. A blood sample is pipetted into the chip and the chip placed into the reader. The sample is continuously illuminated with IR light at 1,300 nm. At time intervals of typically 100 ms, the voltage drop across a 1 MOhm resistor caused by the photocurrent of the photodiode was recorded. Voltages typically measured several volts. Clotting of the sample caused the transmitted light and the photocurrent to vary over time. Characteristic peaks of the transmitted light curve indicated a measure for the clotting time.
Blood was harvested from a patient using commercially available lancing devices. 10 μL of blood were obtained and pipetted into an Eppendorf tube. […]
Edoxaban is a commercially available anticoagulant. […] The chip was inserted into its reader, and both IR light and impedance measurements were immediately recorded at room temperature (approximately 27° C.). […]

N=C(N)NCCC[C@H](N)C(=O)NCCCN1CCN(CCCNC(=O)[C@@H](N)CCCNC(=N)N)CC1 [PER977, ciraparantag]
characteristic peak indicative of the sample clotting time: 2 min
occurrence of a local minimum around 12 minutes: suppresses the occurrence of a local minimum
